Data: paper PMC7993387, “The preclinical inhibitor GS441524 in combination with GC376 efficaciously inhibited the proliferation of SARS-CoV-2 in the mouse respiratory tract” (Emerging Microbes & Infections, 2021)

How the values were obtained:
[1] = Cell viability (Cell Titer-Glo) in Vero E6 cells; format: cell-based; conditions: African green monkey
Procedure: Cell viability was determined using the Cell Titer-Glo kit (Promega, Madison, WI, USA) following the manufacturer’s instructions. Briefly, Vero E6 cells were seeded in 96-well plates with opaque walls. […] Cell Titer-Glo reagent was added to each well, and luminescence was measured using a GloMax 96 Microplate Luminometer (Promega, Madison, WI, USA).

SARS-CoV-2 (HRB26M) = test: microbe, parasite or virus in culture; format: cell-based; conditions: Severe acute respiratory syndrome coronavirus 2, Vero C1008, 24 h, combination molar ratio 1:1, read-out: EC50 (50% inhibitory concentration)
[2] = Single-dose pharmacokinetics in BALB/c mice; format: in vivo; conditions: for AUC(0-t) / CL/F / Cmax / Tmax / Vd/F / half-life / MRT last / MRT inf: BALB/c, mouse, plasma; for MRT last: read-out: MRT0−t; for MRT inf: read-out: MRT0−∞
Procedure: (§1) Healthy SPF BALB/c mice (7-8 weeks) and SD rats (4-6 weeks) were used in a single-dose PK study. […] The blood was collected at 0, 0.083, 0.25, 0.5, 1, 2, 4, 8, 12 and 24 h and placed in a precooled polypropylene centrifuge tube containing 3.0 µl of 40% EDTAK2. Then, the whole blood was centrifuged at 7800 g/min for 10 min at 4°C. Plasma was collected and stored in a freezer at −80°C. Plasma drug concentration was analyzed using LC-MS/MS. Pharmacokinetic parameters were calculated using WinNonlin software (version 6.4), and a non-atrioventricular model was used for data fitting. The data were analyzed using Microsoft Excel 2016 and GraphPad Prism 7.0.

[3] = Single-dose pharmacokinetics in SD rats; format: in vivo; conditions: for AUC(0-t) / Tmax / Vd/F / CL/F / Cmax / half-life / MRT last / MRT inf: Sprague-Dawley, rat, plasma, im; for MRT last: read-out: MRT0−t; for MRT inf: read-out: MRT0−∞
Procedure: as §1

[4] = im, 33.5 mg/kg, BALB/c mice, i.m., combined (GC376 55.5 + GS441524 33.5 mg/kg)
[5] = im, BALB/c mice, alone (GC376 111 mg/kg; GS441524 67 mg/kg)
[6] = im, BALB/c mice, i.m., alone (GC376 111 mg/kg; GS441524 67 mg/kg)
[7] = 33.5 mg/kg, i.m., combined (GC376 55.5 + GS441524 33.5 mg/kg)
[8] = alone (GC376 111 mg/kg; GS441524 67 mg/kg)
[9] = im, BALB/c mice, i.m., combined (GC376 55.5 + GS441524 33.5 mg/kg)
[10] = combined (GC376 55.5 + GS441524 33.5 mg/kg)

N#C[C@@]1(c2ccc3c(N)ncnn23)O[C@H](CO)[C@@H](O)[C@H]1O [GS441524]
CC50 at 24 h [1]: > 250 µM
EC50 (SARS-CoV-2 (HRB26M)): 5.05 ± 2.12 µM
AUC0−t of GS441524 relative to that of GC376 ([2]; BALB/c mice, i.m., alone): approximately 1.9 fold
AUC(0-t) [2, 4]: 49000 ± 11700 ng·h/mL
CL/F [2, 4]: 11.8 mL/min/kg
Cmax [2, 4]: 16000 ± 2200 ng/mL
Tmax [2, 4]: 0.55 ± 0.24 h
Vd/F [2, 4]: 1.68 ± 0.282 L/kg
half-life [2, 4]: 1.67 ± 0.24 h
MRT last [2, 4]: 2.37 ± 0.73 h
MRT inf [2, 4]: 2.48 ± 0.71 h
AUC(0-t) [2, 5]: 107000 ± 16800 ng·h/mL
CL/F [2, 5]: 10.7 mL/min/kg
Cmax [2, 5]: 39600 ± 2930 ng/mL
Tmax [2, 5]: 0.8 ± 0.24 h
Vd/F [2, 5]: 1.37 ± 0.129 L/kg
half-life [2, 5]: 1.51 ± 0.16 h
MRT last [2, 6]: 2.07 ± 0.42 h
MRT inf [2, 6]: 2.15 ± 0.42 h
AUC(0-t) ([3]; 33.5 mg/kg): 88300 ± 26800 ng·h/mL
Tmax ([3]; 33.5 mg/kg): 3.4 ± 1.2 h
Vd/F ([3]; 33.5 mg/kg): 2.71 ± 1.25 L/kg
CL/F [3, 7]: 6.6 mL/min/kg
Cmax [3, 7]: 10500 ± 1850 ng/mL
half-life [3, 7]: 5.13 ± 2.56 h
MRT last [3, 7]: 6.03 ± 1.37 h
MRT inf [3, 7]: 7.57 ± 2.93 h
AUC(0-t) [3, 8]: 183000 ± 64400 ng·h/mL
CL/F [3, 8]: 7.05 mL/min/kg
Cmax [3, 8]: 31000 ± 8400 ng/mL
Tmax [3, 8]: 2 ± 1.1 h
Vd/F [3, 8]: 2.25 ± 0.946 L/kg
half-life [3, 8]: 3.8 ± 1.17 h
MRT last [3, 8]: 4.5 ± 1.11 h
MRT inf [3, 8]: 4.78 ± 1.49 h
AUC0−t of GS441524, fold higher than GC376 ([3]; i.m., alone): approximately 2.0 fold

CC(C)CC(NC(=O)OCc1ccccc1)C(=O)NC(CC1CCNC1=O)C(O)S(=O)(=O)O (centres unmarked) [GC376]
CC50 at 24 h [1]: > 250 µM
EC50 (SARS-CoV-2 (HRB26M)): 0.881 ± 0.109 µM
Cmax of GC376 relative to that of GS441524 ([2]; BALB/c mice, i.m., alone): approximately 1.2 fold
clearance rate (CL/F) of GC376 relative to that of GS441524 ([2]; BALB/c mice, i.m., alone): approximately 3.1 fold
half-life ([2]; (GC376 55.5 + GS441524 33.5 mg/kg)): 0.81 ± 0.22 h
AUC(0-t) [2, 5]: 55300 ± 11300 ng·h/mL
CL/F [2, 5]: 33.1 mL/min/kg
Cmax [2, 5]: 46700 ± 10700 ng/mL
Tmax [2, 5]: 0.22 ± 0.07 h
Vd/F [2, 5]: 2.87 ± 0.432 L/kg
half-life [2, 5]: 1.12 ± 0.53 h
MRT last [2, 6]: 1.05 ± 0.12 h
MRT inf [2, 6]: 1.38 ± 0.59 h
AUC(0-t) [2, 9]: 27800 ± 4410 ng·h/mL
CL/F [2, 9]: 33.9 mL/min/kg
Cmax [2, 9]: 30040 ± 220 ng/mL
Tmax [2, 9]: 0.25 h
Vd/F [2, 9]: 2.34 ± 0.617 L/kg
MRT last [2, 9]: 0.79 ± 0.09 h
MRT inf [2, 9]: 0.88 ± 0.12 h
AUC(0-t) [3]: 42400 ± 6440 ng·h/mL
Tmax [3]: 1.4 ± 0.49 h
Vd/F [3]: 5.17 ± 1.87 L/kg
AUC(0-t) [3, 8]: 92100 ± 9990 ng·h/mL
CL/F [3, 8]: 20.1 mL/min/kg
Cmax [3, 8]: 12600 ± 1900 ng/mL
Tmax [3, 8]: 1.3 ± 0.6 h
Vd/F [3, 8]: 6.75 ± 1.04 L/kg
half-life [3, 8]: 3.87 ± 0.49 h
MRT last [3, 8]: 5.83 ± 0.74 h
MRT inf [3, 8]: 6.06 ± 0.64 h
CL/F [3, 10]: 21.9 mL/min/kg
Cmax [3, 10]: 11800 ± 1630 ng/mL
half-life [3, 10]: 2.75 ± 0.91 h
MRT last [3, 10]: 2.97 ± 0.41 h
MRT inf [3, 10]: 3.32 ± 0.57 h
Cmax of GC376, fold lower than GS441524 ([3]; i.m., alone): approximately 2.5 fold
clearance rate (CL/F) of GC376 relative to that of GS441524 ([3]; i.m., alone): approximately 2.9 fold
